# Source: patent US20200017495A1, “NOVEL HETEROCYCLIC COMPOUNDS AND THEIR USE IN PREVENTING OR TREATING BACTERIAL INFECTIONS” (priority 2017, published 2020)
# Test system: Klebsiella pneumoniae (KPN) isolates
# Test: MIC of compounds alone and combined with antibacterials, broth microdilution (CLSI)
# Assay type: cell-based
# In short: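 Antibacterial MICs in combination were determined at every compound concentration tested, alongside compound MICs alone. Bacteria grew in cation-adjusted Mueller-Hinton broth starting from 5.10^5 CFU/mL, incubated at 35° C for 16-20 h, and endpoints were the lowest concentrations with no visible growth.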
structure (smiles),measurement,setting,value
"C=CC1=C(C(=O)O)N2C(=O)[C@@H](NC(=O)/C(=N\OCC(=O)O)c3csc(N)n3)[C@H]2SC1 [FIX, Cefixime]",MIC ATB in combination,"KPN UFR81, AF2 @ 8 μg/mL",64 µg/mL
same,MIC ATB in combination,"KPN UFR81, AF3 @ 8 μg/mL",32 µg/mL
same,MIC ATB in combination,"KPN UFR81, CLA @ 4 μg/mL",>128 µg/mL
same,MIC ATB in combination,"KPN UFR215, AF2 @ 8 μg/mL",<=0.25 μg/mL
same,MIC ATB in combination,"KPN UFR215, AF3 @ 8 μg/mL",<=0.25 μg/mL
same,MIC ATB in combination,"KPN UFR215, CLA @ 4 μg/mL",1 µg/mL
same,MIC ATB in combination,"KPN UFR216, AF2 @ 8 μg/mL",<0.25 µg/mL
same,MIC ATB in combination,"KPN UFR216, AF3 @ 8 μg/mL",<0.25 µg/mL
same,MIC ATB in combination,"KPN UFR216, CLA @ 4 μg/mL",<=0.25 μg/mL
same,MIC ATB in combination,"KPN UFR217, AF2 @ 8 μg/mL",<0.25 µg/mL
same,MIC ATB in combination,"KPN UFR217, AF3 @ 8 μg/mL",<0.25 µg/mL
same,MIC ATB in combination,"KPN UFR217, CLA @ 4 μg/mL",<=0.25 μg/mL
same,MIC ATB in combination,"KPN UFR218, AF2 @ 8 μg/mL",<0.25 µg/mL
same,MIC ATB in combination,"KPN UFR218, AF3 @ 8 μg/mL",<0.25 µg/mL
same,MIC ATB in combination,"KPN UFR218, CLA @ 4 μg/mL",1 µg/mL
same,MIC ATB in combination,"KPN UFR219, AF2 @ 8 μg/mL",0.5 µg/mL
same,MIC ATB in combination,"KPN UFR219, AF3 @ 8 μg/mL",<=0.25 μg/mL
same,MIC ATB in combination,"KPN UFR219, CLA @ 4 μg/mL",0.5 µg/mL
same,MIC ATB in combination,"KPN UFR220, AF2 @ 8 μg/mL",<0.25 µg/mL
same,MIC ATB in combination,"KPN UFR220, AF3 @ 8 μg/mL",<0.25 µg/mL
same,MIC ATB in combination,"KPN UFR220, CLA @ 4 μg/mL",>128 µg/mL
same,MIC ATB in combination,"KPN UFR221, AF2 @ 8 μg/mL",<0.25 µg/mL
same,MIC ATB in combination,"KPN UFR221, AF3 @ 8 μg/mL",<0.25 µg/mL
same,MIC ATB in combination,"KPN UFR221, CLA @ 4 μg/mL",128 µg/mL
same,MIC ATB in combination,"KPN UFR222, AF2 @ 8 μg/mL",<0.25 µg/mL
same,MIC ATB in combination,"KPN UFR222, AF3 @ 8 μg/mL",<0.25 µg/mL
same,MIC ATB in combination,"KPN UFR222, CLA @ 4 μg/mL",>128 µg/mL
same,MIC ATB in combination,"KPN UFR227O, AF2 @ 8 μg/mL",8 µg/mL
same,MIC ATB in combination,"KPN UFR227O, AF3 @ 8 μg/mL",16 µg/mL
same,MIC ATB in combination,"KPN UFR227O, CLA @ 4 μg/mL",>128 µg/mL
same,MIC,"strain KPN 6299, genotype TEM-1, SHV-11, OXA-163",8 µg/mL
same,MIC,"strain KPN 110376, compound alone",>128 µg/mL
same,MIC,"strain KPN 110376, genotype TEM-1, SHV-1, CTX-M-15, OXA-1, OXA-48",>128 µg/mL
same,MIC,"strain KPN 121206, genotype SHV-1, NDM-1",>128 µg/mL
same,MIC,"strain KPN 131119, compound alone",>128 µg/mL
same,MIC,"strain KPN 131119, genotype TEM-1, SHV-11, CTX-M-15, OXA-1, OXA-48",>128 µg/mL
same,MIC,"strain KPN 140347, genotype CTX-M-15, NDM-1, antibiotic alone",>128 µg/mL
same,MIC ATB in combination,"strain KPN 140347, with AF2 @ 8 μg/mL",>128 µg/mL
same,MIC ATB in combination,"strain KPN 140347, with AF3 @ 8 μg/mL",>128 µg/mL
same,MIC ATB in combination,"strain KPN 140347, with CLA @ 4 μg/mL",>128 µg/mL
same,MIC,"strain KPN 140513, genotype TEM-1, SHV-11, CTX-M-15, KPC-3",>128 µg/mL
same,MIC,"strain KPN 160143, genotype TEM-1, SHV-1, CTX-M-15, KPC-2, OXA-1",>128 µg/mL
same,MIC,"strain KPN 190128, genotype TEM-1, SHV-32, CTX-M-15, OXA-1",>128 µg/mL
same,MIC,"strain KPN 190270, compound alone",>128 µg/mL
same,MIC,"strain KPN 190270, genotype TEM-1, SHV-76, CTX-M-15, OXA-1",>128 µg/mL
same,MIC,"strain KPN 190425, genotype TEM-1, SHV-1, CTX-M-15, OXA-1",>128 µg/mL
same,MIC,"strain KPN 190551, genotype TEM-1, SHV-1, CTX-M-15, OXA-1",>128 µg/mL
same,MIC,"strain KPN 200047, genotype TEM-1, SHV-32, CTX-M-15, OXA-1",>128 µg/mL
same,MIC,"strain KPN 200327, genotype TEM-1, SHV-1, CTX-M-15, OXA-1",64 µg/mL
same,MIC,"strain KPN 260251, genotype TEM-1, SHV-11, SHV-12, CTX-M-15, KPC-2",>128 µg/mL
same,MIC,"strain KPN 260252, genotype TEM-1, SHV-11, KPC-3",>128 µg/mL
same,MIC,"strain KPN 260376, genotype SHV-1, SHV-49, OXA-1",>128 µg/mL
same,MIC,"strain KPN 270077, genotype TEM-1, SHV-1, CTX-M-15",>128 µg/mL
same,MIC,"strain KPN 700603, genotype SHV-18, OXA-2",16 µg/mL
same,MIC,"strain KPN ARA, genotype TEM-1, SHV-11, CTX-M-15, OXA-1, OXA-48",>128 µg/mL
same,MIC,"strain KPN BAA-1898, genotype TEM-1, SHV-11, SHV-12, KPC-2",>128 µg/mL
same,MIC,"strain KPN LIB, genotype SHV-11, OXA-48",<=0.25 μg/mL
same,MIC,"strain KPN UFR22_O, genotype TEM-1, SHV-1, OXA-48",<=0.25 μg/mL
same,MIC,"strain KPN UFR23, genotype TEM-1, SHV-1, OXA-48",<=0.25 μg/mL
same,MIC,"strain KPN UFR24, genotype TEM-1, SHV-2, SHV-11, OXA-1, OXA-48, OXA-47",>128 µg/mL
same,MIC,"strain KPN UFR25, compound alone",>128 µg/mL
same,MIC,"strain KPN UFR25, genotype TEM-1, SHV-11, CTX-M-15, OXA-162",>128 µg/mL
same,MIC,"strain KPN UFR27, genotype TEM-1, SHV-28, CTX-M-15, OXA-204",>128 µg/mL
same,MIC,"strain KPN UFR28, genotype TEM-1, SHV-1, CTX-M-15, OXA-1, OXA-232",256 µg/mL
same,MIC,"strain KPN UFR33, genotype TEM-2, SHV-12, CTX-M-15, OXA-1, OXA-10",>128 µg/mL
same,MIC,"strain KPN UFR42, genotype SHV-2, CTX-M-15 OXA-1, OXA-181, NDM-1",>128 µg/mL
same,MIC,"strain KPN UFR43, genotype SHV-11, CTX-M-15, CMY-2, OXA-1, NDM-1",>128 µg/mL
same,MIC,"strain KPN UFR46, genotype TEM-1, SHV-12, CTX-M-15, OXA-9, VIM-1",>128 µg/mL
same,MIC,"strain KPN UFR53, genotype TEM-1, IMP-1",>128 µg/mL
same,MIC,"strain KPN UFR65, genotype TEM-1, SHV-11, KPC-2",>128 µg/mL
same,MIC,"strain KPN UFR66, compound alone",512 µg/mL
same,MIC,"strain KPN UFR66, genotype TEM-1, SHV-11, CTX-M-15, KPC-2",512 µg/mL
same,MIC,"strain KPN UFR67, genotype TEM-1, SHV-11, KPC-3",>128 µg/mL
same,MIC,"strain KPN UFR68, compound alone",>128 µg/mL
same,MIC,"strain KPN UFR68, genotype TEM-1, SHV-11, CTX-M-15, KPC-3",>128 µg/mL
same,MIC,"strain KPN UFR76, genotype TEM-155, SHV-11, ACT-1, OXA-2",>128 µg/mL
same,MIC,"strain KPN UFR77, genotype CMY-2",128 µg/mL
same,MIC,"strain KPN UFR78, genotype TEM-1, SHV-1, CTX-M-15, CMY-2, OXA-1, OXA-48",>128 µg/mL
same,MIC,"strain KPN UFR79, genotype DHA-1, OXA-1",>128 µg/mL
same,MIC,"strain KPN UFR80, genotype SHV-11, DHA-1, OXA-1",<=0.25 μg/mL
same,MIC,"strain KPN UFR81, genotype TEM-1, SHV-1, DHA-1, OXA-48",>128 µg/mL
same,MIC,"strain KPN UFR162, genotype SHV-28, TEM-1, CTX-M-15, OXA-181, OXA-181, NDM-1, antibiotic alone",>128 µg/mL
same,MIC ATB in combination,"strain KPN UFR162, with AF2 @ 8 μg/mL",>128 µg/mL
same,MIC ATB in combination,"strain KPN UFR162, with AF3 @ 8 μg/mL",<0.25 µg/mL
same,MIC ATB in combination,"strain KPN UFR162, with CLA @ 4 μg/mL",>128 µg/mL
same,MIC,"strain KPN UFR163, genotype TEM-1, SHV-1, CTX-M-15, OXA-232, OXA-9, NDM-1, qnrB1, qepA, RmtB, antibiotic alone",>128 µg/mL
same,MIC ATB in combination,"strain KPN UFR163, with AF2 @ 8 μg/mL",>128 µg/mL
same,MIC ATB in combination,"strain KPN UFR163, with AF3 @ 8 μg/mL",<0.25 µg/mL
same,MIC ATB in combination,"strain KPN UFR163, with CLA @ 4 μg/mL",>128 µg/mL
same,MIC,"strain KPN UFR164, genotype SHV-11, CTX-M-15, OXA-1, OXA-181, NDM-1, antibiotic alone",>128 µg/mL
same,MIC ATB in combination,"strain KPN UFR164, with AF2 @ 8 μg/mL",>128 µg/mL
same,MIC ATB in combination,"strain KPN UFR164, with AF3 @ 8 μg/mL",>128 µg/mL
same,MIC ATB in combination,"strain KPN UFR164, with CLA @ 4 μg/mL",>128 µg/mL
same,MIC,"strain KPN UFR165, genotype TEM-1, SHV-11, CTX-M-15, OXA-1, OXA-181, NDM-1, antibiotic alone",>128 µg/mL
same,MIC ATB in combination,"strain KPN UFR165, with AF2 @ 8 μg/mL",64 µg/mL
same,MIC ATB in combination,"strain KPN UFR165, with AF3 @ 8 μg/mL",>128 µg/mL
same,MIC ATB in combination,"strain KPN UFR165, with CLA @ 4 μg/mL",>128 µg/mL
